How the values were obtained:
Type in all cases: cell-based
[1] = target: T1, human sphingosine-1-phosphate receptor 1 (S1P1) (Homo sapiens, UniProt P21453); test: β-Arrestin2 recruitment assay (PathHunter), S1P1 CHO-K1 cells; conditions: for Emax: efficacy normalized to maximum efficacy of fingolimod, read-out: hS1P1 B-arrestin2 SPAN; for EC50: β-arrestin2 recruitment, read-out: hS1P1 B-arrestin2 pEC50 (converted)
Method in brief: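 Agonist-driven β-arrestin2 recruitment measured by β-galactosidase complementation after 60 min compound exposure at 37 °C and 1 h detection at room temperature. Cells: stable CHO-K1 line expressing tagged human S1P1 with EA-β-arrestin2, plated the night before. Data expressed relative to fingolimod.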
Target sequence in this assay (P21453 whole entry): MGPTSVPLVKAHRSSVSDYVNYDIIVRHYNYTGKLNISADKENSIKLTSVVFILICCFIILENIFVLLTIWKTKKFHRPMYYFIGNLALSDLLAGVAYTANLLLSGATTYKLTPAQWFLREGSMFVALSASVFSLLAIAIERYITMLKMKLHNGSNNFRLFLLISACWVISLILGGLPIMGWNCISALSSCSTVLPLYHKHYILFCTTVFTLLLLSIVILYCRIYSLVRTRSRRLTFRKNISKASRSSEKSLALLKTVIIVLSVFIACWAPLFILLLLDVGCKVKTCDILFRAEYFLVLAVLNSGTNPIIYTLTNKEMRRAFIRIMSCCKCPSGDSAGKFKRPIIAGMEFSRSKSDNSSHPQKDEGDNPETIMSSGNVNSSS
Target sequence in this assay (P32121 whole entry partner): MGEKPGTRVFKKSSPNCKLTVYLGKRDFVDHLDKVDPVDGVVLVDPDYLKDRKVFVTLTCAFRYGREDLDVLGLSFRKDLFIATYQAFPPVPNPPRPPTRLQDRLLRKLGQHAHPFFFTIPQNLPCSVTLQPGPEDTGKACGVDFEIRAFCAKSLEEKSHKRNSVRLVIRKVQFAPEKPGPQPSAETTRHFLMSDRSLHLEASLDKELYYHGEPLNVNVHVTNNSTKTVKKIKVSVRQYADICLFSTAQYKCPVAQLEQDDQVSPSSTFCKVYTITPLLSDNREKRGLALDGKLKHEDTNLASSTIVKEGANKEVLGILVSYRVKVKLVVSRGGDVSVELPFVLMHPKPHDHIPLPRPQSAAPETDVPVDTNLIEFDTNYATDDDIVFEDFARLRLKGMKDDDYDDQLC

[2] = target: human sphingosine-1-phosphate receptor 3 (S1P3) (Homo sapiens, UniProt Q99500); test: Selectivity: inhibition of cAMP production (HTRF), S1P3 CHO-K1 cells; conditions: for Emax: CHO-K1, efficacy normalized to maximal efficacy of fimgolimod, read-out: hS1P3 cAMP SPAN; for EC50: inhibition of cAMP production, read-out: hS1P3 cAMP pEC50 (converted)
Chain of human sphingosine-1-phosphate receptor 3 (S1P3) (Q99500 whole entry): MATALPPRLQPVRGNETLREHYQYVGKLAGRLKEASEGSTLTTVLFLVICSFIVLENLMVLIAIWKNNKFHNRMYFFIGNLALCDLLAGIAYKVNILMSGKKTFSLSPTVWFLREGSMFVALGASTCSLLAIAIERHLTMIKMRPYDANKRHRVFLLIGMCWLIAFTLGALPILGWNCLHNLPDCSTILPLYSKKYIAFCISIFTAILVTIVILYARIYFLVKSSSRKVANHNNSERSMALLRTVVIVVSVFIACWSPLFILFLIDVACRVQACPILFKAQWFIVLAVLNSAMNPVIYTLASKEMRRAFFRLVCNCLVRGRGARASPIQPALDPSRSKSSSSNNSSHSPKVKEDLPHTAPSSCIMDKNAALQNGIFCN
Description: (§1) Cell Culturing and Assay Plating Cell lines were cultured in AssayComplete™ Media 6 (DiscoverX Corporation, Cat #: 920018GF2) at 37° C. and 5% CO2 in a humidified CO2 and temperature-controlled incubator. To begin assay plating, cells were washed with Dulbecco's phosphate buffered saline (CellGro, Cat #: 21-031-CV) and lifted from the culturing flask by incubation (37° C., 5 min) with CellStripper (Cellgro, Cat #: 25-056-CI). […] Plated cells were incubated overnight at 37° C. and 5% CO2 in a humidified CO2 and temperature-controlled incubator. Detecting Inhibition of cAMP Production
(§2) S1P3 and S1P5 Agonist-promoted G-protein responses were determined by measuring changes in intracellular cAMP using the HTRF® cAMP HiRange kit (CisBio, Cat #: 62AM6PEJ) based on time-resolved fluorescence resonance energy transfer (TR-FRET) technology. […] Following a 30-minute room temperature incubation the components of the cAMP HiRange kit were added as per the manufacturer's instructions. After an hour incubation at room temperature, plates were analyzed by a BMG PheraStar microplate reader.
(§3) These values are normalized to fimgolimod, a known agonist of the sphingosine-1-phosphate 3 and 5 receptor or CYM5520, a known agonist of the sphingosine-1-phosphate 2 receptor. The tables also include potency values (pEC50) for modulating discrete receptor-mediated activities (inhibition of cAMP production or inositol monophosphate accumulation).

[3] = target: T1, human sphingosine-1-phosphate receptor 1 (S1P1); test: Inhibition of cAMP production (HTRF cAMP HiRange), S1P1 CHO-K1 cells; conditions: for Emax: CHO-K1, efficacy normalized to maximum efficacy of fingolimod, read-out: hS1P1 CAMP SPAN; for EC50: read-out: hS1P1 CAMP pEC50 (converted)
Method in brief: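 Intracellular cAMP changes read by TR-FRET (HTRF HiRange, 1 h room temperature) after 30 min compound exposure at 37 °C. Cells: overnight-plated CHO-K1 stably expressing tagged human S1P1 with EA-β-arrestin2. Responses normalized to fingolimod.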
Target sequence in this assay (P21453 whole entry): as the sequence (P21453 whole entry) above

[4] = target: human sphingosine-1-phosphate receptor 2 (S1P2) (Homo sapiens, UniProt O95136); test: Selectivity: inositol monophosphate production (IP-one), S1P2 CHO-K1 cells; conditions: for Emax: CHO-K1, efficacy normalized to maximal efficacy of CYM5520, read-out: hS1P2 IP-one SPAN; for EC50: inositol monophosphate accumulation, read-out: hS1P2 IP-one pEC50 (converted)
Chain of human sphingosine-1-phosphate receptor 2 (S1P2) (O95136 whole entry): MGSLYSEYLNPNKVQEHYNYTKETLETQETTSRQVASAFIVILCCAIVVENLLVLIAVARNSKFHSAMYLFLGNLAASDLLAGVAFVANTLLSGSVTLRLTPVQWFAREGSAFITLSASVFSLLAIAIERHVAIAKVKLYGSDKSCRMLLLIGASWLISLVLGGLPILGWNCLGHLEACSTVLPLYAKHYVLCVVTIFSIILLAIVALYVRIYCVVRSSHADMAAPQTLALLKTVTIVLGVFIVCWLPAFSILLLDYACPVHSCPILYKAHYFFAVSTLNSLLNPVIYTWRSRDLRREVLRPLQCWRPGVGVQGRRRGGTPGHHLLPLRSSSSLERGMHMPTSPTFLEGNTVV
Description: as §1
S1P2 Agonist-promoted G-protein responses were determined by measuring changes in intracellular inositol monophosphate using the IP-one TB kit (CisBio, Cat #: 62IPAPEJ) based on time-resolved fluorescence resonance energy transfer (TR-FRET) technology. AssayComplete™ Cell Plating 2 Reagent was removed and replaced with 1× IP-one stimulation buffer (as per manufacturer's instructions) along with test or control compounds at the desired concentrations.
Following a 60-minute incubation at 37° C. and 5% CO2 in a humidified CO2 and temperature-controlled incubator, the components of the IP-one TB kit were added as per the manufacturer's instructions. After an hour incubation at room temperature, plates were analyzed by a BMG PheraStar microplate reader.
as §3

[5] = target: sphingosine-1-phosphate receptor 5 (S1P5) (Homo sapiens, UniProt Q9H228); test: Selectivity: inhibition of cAMP production (HTRF), S1P5 CHO-K1 cells; conditions: for Emax: CHO-K1, efficacy normalized to maximal efficacy of fimgolimod, read-out: hS1P5 cAMP SPAN; for EC50: inhibition of cAMP production, read-out: hS1P5 cAMP pEC50 (converted)
Chain of sphingosine-1-phosphate receptor 5 (S1P5) (Q9H228 whole entry): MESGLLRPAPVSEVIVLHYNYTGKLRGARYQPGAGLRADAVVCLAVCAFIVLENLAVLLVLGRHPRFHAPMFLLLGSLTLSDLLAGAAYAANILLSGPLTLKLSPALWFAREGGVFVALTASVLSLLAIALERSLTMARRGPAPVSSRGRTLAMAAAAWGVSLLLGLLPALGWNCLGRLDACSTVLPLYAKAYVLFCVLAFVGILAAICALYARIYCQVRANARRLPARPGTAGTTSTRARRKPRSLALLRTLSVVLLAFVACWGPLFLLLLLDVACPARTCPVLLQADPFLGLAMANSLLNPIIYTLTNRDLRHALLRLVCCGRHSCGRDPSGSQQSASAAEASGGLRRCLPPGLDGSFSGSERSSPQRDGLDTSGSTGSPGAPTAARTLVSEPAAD
Description: as §1, §2, §3

[6] = inhibition of cAMP production, S1P1
[7] = CHO-K1, β-arrestin2 recruitment
[8] = inhibition of cAMP production, potency

Row | SMILES | Emax ([1]; CHO-K1) [%] | EC50 ([1]; S1P1) [µM] | Emax [2] [%] | EC50 [2] [µM] | Emax [3] [%] | EC50 [3, 6] [µM] | Emax [4] [%] | EC50 [4] [µM] | Emax [1, 7] [%] | EC50 ([1]; potency) [µM] | Emax ([3]; inhibition of cAMP production) [%] | EC50 [3, 8] [µM] | Emax [5] [%] | EC50 [5] [µM]
1 | CCC1(CC)CC(=O)c2cc(-c3nc(-c4ccc5[nH]c(=O)oc5c4)no3)ccc2O1 [Compound 445, 6-(5-(2,2-diethyl-4-oxochroman-6-yl)-1,2,4-oxadiazol-3-yl)benzo[d]oxazol-2(3H)-one] | > 75 | < 10 | < 50 | > 10 | > 75 | < 0.316 | < 50 | < 10 |  |  |  |  |  | 
2 | CCC1(CC)CC(=O)c2cc(-c3nc(-c4ccnc(O)c4)no3)ccc2O1 [Compound 263, 2,2-diethyl-6-[3-(2-hydroxy-4-pyridyl)-1,2,4-oxadiazol-5-yl]chroman-4-one] |  |  | < 50 | > 10 |  |  | < 50 | > 10 | > 75 | < 10 | > 75 | < 0.316 | < 50 | > 10
3 | CC(C)Nc1ccc(-c2nc(-c3ccc4c(c3)NC(=O)C4)no2)cc1C#N [Compound 496, 2-(isopropylamino)-5-(3-(2-oxoindolin-6-yl)-1,2,4-oxadiazol-5-yl)benzonitrile] | > 75 | < 10 | < 50 | > 10 | > 75 | < 0.316 | < 50 | > 10 |  |  |  |  |  | 
4 | CCC1(CC)CC(=O)c2cc(-c3nc(-c4ccccc4Cl)no3)ccc2O1 [Compound 221, 6-(3-(2-chlorophenyl)-1,2,4-oxadiazol-5-yl)-2,2-diethylchroman-4-one] |  |  | < 50 | < 10 |  |  | < 50 | > 10 | > 75 | < 10 | > 75 | < 0.316 | < 50 | < 10
5 | CCC1(CC)CC(=O)c2cc(-c3nc(-c4ccc5[nH]ncc5c4)no3)ccc2O1 [Compound 152, 6-(3-(1H-indazol-5-yl)-1,2,4-oxadiazol-5-yl)-2,2-diethyl-chroman-4-one] |  |  | < 50 | > 10 |  |  | < 50 | > 10 | > 75 | < 10 | > 75 | > 0.316 | < 50 | > 10
6 | Cc1ccncc1-c1noc(-c2ccc3c(c2)nnn3C2CCC2)n1 [Compound 417, 1-cyclobutyl-5-[3-(4-methylpyridin-3-yl)-1,2,4-oxadiazol-5-yl]-1H-1,2,3-benzotriazole] | > 75 | < 10 | < 50 | > 10 | > 75 | < 0.316 | < 50 | < 10 |  |  |  |  | < 50 | > 10
7 | COc1ccccc1-c1nnc(-c2ccc3c(c2)oc(=O)n3C)o1 [Compound 406, 6-[5-(2-methoxy-phenyl)-1,3,4-oxadiazol-2-yl]-3-methyl-2,3-dihydro-1,3-benzoxazol-2-one] | > 75 | < 10 | < 50 | > 10 | > 75 | < 0.316 | < 50 | > 10 |  |  |  |  | < 50 | > 10
8 | CC(C)Nc1ccc(-c2nc(-c3ccc4oc(=O)[nH]c4c3)no2)cc1C#N [Compound 422, 2-(isopropylamino)-5-(3-(2-oxo-2,3-dihydrobenzo[d]oxazol-5-yl)-1,2,4-oxadiazol-5-yl)benzonitrile] | > 75 | < 10 | < 50 | < 10 | > 75 | < 0.316 | < 50 | < 10 |  |  |  |  |  | 
9 | Cn1cnc2ccc(-c3nnc(-c4ccc(NCC(F)(F)CO)c(C#N)c4)o3)cc21 [Compound 635, 2-[(2,2-difluoro-3-hydroxypropyl)amino]-5-[5-(1-methyl-1H-1,3-benzodiazol-6-yl)-1,3,4-oxadiazol-2-yl]benzonitrile] | < 75 | < 10 |  |  | < 75 | < 0.316 |  |  |  |  |  |  |  | 
10 | CCC1(CC)CC(=O)c2cc(-c3nc(-c4ccnc(S(N)(=O)=O)c4)no3)ccc2O1 [Compound 616, 4-(5-(2,2-diethyl-4-oxochroman-6-yl)-1,2,4-oxadiazol-3-yl)pyridine-2-sulfonamide] | > 75 | < 10 |  |  | > 75 | < 0.316 |  |  |  |  |  |  |  | 
11 | COc1ccccc1-c1c[nH]c(-c2ccc3c(c2)nnn3C(C)C)c1 [Compound 566, 5-[4-(2-methoxyphenyl)-1H-pyrrol-2-yl]-1-(propan-2-yl)-1H-1,2,3-benzotriazole] | < 75 | > 10 |  |  | < 75 | > 0.316 |  |  |  |  |  |  |  | 
12 | CC(C)(CO)n1nnc2cc(-c3noc(-c4ccncc4C(F)(F)F)n3)ccc21 [Compound 626, 2-methyl-2-(5-(5-(3-(trifluoro-methyl)pyridin-4-yl)-1,2,4-oxadiazol-3-yl)-1H-benzo[d] [1,2,3]triazol-1-yl)propan-1-ol] | < 75 |  |  |  | < 75 | > 0.316 |  |  |  |  |  |  |  | 
13 | CCC1CC(=O)c2ccc(-c3nc(-c4cccnc4)no3)cc2O1 (stereo not drawn) [Compound 588, 2-ethyl-7-[3-(pyridin-3-yl)-1,2,4-oxadiazol-5-yl]-3,4-dihydro-2H-1-benzopyran-4-one] | < 75 | > 10 |  |  | < 75 | > 0.316 |  |  |  |  |  |  |  | 
14 | N#Cc1cc(-c2nnc(-c3cccc4[nH]cnc34)o2)ccc1NCC(F)F [Compound 586, 5-[5-(1H-1,3-benzodiazol-4-yl)-1,3,4-oxadiazol-2-yl]-2-[(2,2-difluoro-ethyl)amino]benzonitrile] | > 75 | < 10 |  |  | > 75 | < 0.316 |  |  |  |  |  |  |  | 
15 | Cc1ccccc1-c1noc(-c2ccc3c(c2)CCC(=O)N3C)n1 [Compound 367, 1-methyl-6-[3-(2-methyl-phenyl)-1,2,4-oxadiazol-5-yl]-1,2,3,4-tetrahydroquinolin-2-one] |  |  |  |  |  |  |  |  | < 75 | > 10 | < 75 | > 0.316 |  | 
16 | Cc1ccccc1-c1nc(-c2ccc3c(c2)nnn3C(C)(C)CO)no1 [Compound 609, 2-methyl-2-(5-(5-(o-tolyl)-1,2,4-oxadiazol-3-yl)-1H-benzo[d] [1,2,3]triazol-1-yl)propan-1-ol] | < 75 | > 10 |  |  | < 75 | < 0.316 |  |  |  |  |  |  |  | 
17 | CCCC1(CCC)CC(=O)c2cc(-c3nc(-c4cccnc4)no3)ccc2O1 [Compound 218, 2,2-dipropyl-6-[3-(pyridin-3-yl)-1,2,4-oxadiazol-5-yl]-3,4-dihydro-2H-1-benzopyran-4-one] |  |  |  |  |  |  |  |  | > 75 | > 10 | > 75 | > 0.316 |  | 
18 | CC(C)n1nnc2cc(-c3noc(C4CCCC4)n3)ccc21 [Compound 278, 5-(5-cyclopentyl-1,2,4-oxadiazol-3-yl)-1-(propan-2-yl)-1H-1,2,3-benzotriazole5-(5-cyclopentyl-1,2,4-oxadiazol-3-yl)-1-(propan-2-yl)-1H-1,2,3-benzotriazole] |  |  |  |  |  |  |  |  | < 75 |  | < 75 |  |  | 

— patent US20230114241A1, “METHODS OF TREATING EPILEPSY USING THE SAME” (Trevena, Inc., priority 2019, published 2023)
